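Step 1: Grow cells in 96-well plates. Step 2: Expose to compound for 48 hours at 5 concentrations. Step 3: Interpolate endpoints linearly; if unreached, use highest concentration. GI50: concentration for 50% inhibition of growth.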 Activity calls are given as the source filed them. Rule as the data show it: active = GI50 up to about 1.1 µM and inactive = higher.

Among the test systems are HCC 2998; HCT-15; HL-60; HOP-92; HT-29; Malme-3M; NCI-H23; NCI-H522; OVCAR-4; SF-268; SF-295; SK-MEL-28; SK-MEL-2; SK-MEL-5; SN12C; SR; UACC-257; UACC-62.
Common to all, as to assay: NCI-60 cell line screen, 48 h

With `COc1cc(CC2C(=O)OCC2[C@@H](OC(C)=O)c2ccc3c(c2)OCO3)c(Br)c(OC)c1OC` (some centres not stated), the GI50 is 98.4 µM (inactive) in the assay on HCC 2998; 19.1 µM in the assay on HCT-15; 35.6 µM (inactive) in the assay with HL-60; 12 µM (inactive) in the assay on HOP-92; 35.9 µM (inactive) with HT-29; 37.9 µM (inactive) in the assay with Malme-3M. Also, the GI50 in the assay with NCI-H23 was 68.9 µM (inactive); with NCI-H522, 26.5 µM (inactive); with OVCAR-4 it was 90.6 µM (inactive); with SF-268, > 100 µM (inactive); in the assay with SF-295 it was 33.1 µM (inactive); with SK-MEL-28, 73.3 µM (inactive). Further, the GI50 is 61.4 µM (inactive) in the assay on SK-MEL-2; 30.9 µM (inactive) in the assay with SK-MEL-5; > 100 µM (inactive) with SN12C; 29.4 µM (inactive) in the assay on SR; 69.5 µM (inactive) in the assay on UACC-257; 37.8 µM (inactive) in the assay on UACC-62.

Consider `Cc1ccc(S(=O)(=O)C(C#N)c2nc3ccccc3nc2N2CCOCC2)cc1` (configuration not stated), for which the GI50 was 14.1 µM (inactive) in the assay with HCC 2998; 31 µM in the assay on HCT-15; > 10 µM (inactive) with HL-60; 27.5 µM (inactive) in the assay with Malme-3M; 21.8 µM (inactive) with NCI-H23; 18.7 µM (inactive) in the assay with NCI-H522. Moreover, the GI50 was 20.5 µM (inactive) in the assay on OVCAR-4; 28.6 µM (inactive) in the assay with SF-268; 23.4 µM (inactive) with SK-MEL-28; 33.1 µM (inactive) in the assay on SK-MEL-2; 48.8 µM (inactive) in the assay with SK-MEL-5; 28.2 µM (inactive) in the assay with SN12C. Moreover, the GI50 in the assay on SR is 28.1 µM (inactive); in the assay with UACC-257, 33.8 µM (inactive); with UACC-62 it was 12.4 µM (inactive).

Regarding `Cc1ccc2nc3c(C(=O)NCCN(C)C)cccc3nc2c1`, the GI50 was 6.05 µM (inactive) in the assay on HCC 2998; 2.9 µM in the assay on HCT-15; 5.45 µM (inactive) in the assay on HL-60; 2.38 µM (inactive) in the assay on HOP-92; 2.32 µM (inactive) with HT-29; 2.47 µM (inactive) in the assay on Malme-3M. In addition, the GI50 was 4.26 µM (inactive) with NCI-H23; 8.81 µM (inactive) with NCI-H522; 4.69 µM (inactive) in the assay on OVCAR-4; 5.22 µM (inactive) in the assay with SF-295; 4.7 µM (inactive) in the assay with SK-MEL-28; 2.76 µM (inactive) in the assay on SK-MEL-2. Besides, the GI50 in the assay on SK-MEL-5 is 4.6 µM (inactive); with SN12C, 3.42 µM (inactive); in the assay with SR, 1.01 µM (active); in the assay on UACC-257 it was 3.8 µM (inactive); with UACC-62 it was 4.35 µM (inactive).

Consider `C/C=C1\CN2CCc3c([nH]c4ccccc34)C2CC1C(=O)OC` (configuration not stated), for which the GI50 is > 322 µM (inactive) with HCC 2998; more than 322 µM in the assay with HCT-15; > 32.2 µM (inactive) in the assay on HL-60; 169 µM (inactive) in the assay on HOP-92; > 322 µM (inactive) in the assay with HT-29; > 322 µM (inactive) in the assay with Malme-3M. The GI50 in the assay with NCI-H23 was > 322 µM (inactive); in the assay with NCI-H522, 287 µM (inactive); in the assay on SF-268 it was > 322 µM (inactive); with SF-295 it was > 322 µM (inactive); with SK-MEL-28, > 322 µM (inactive); in the assay on SK-MEL-2, > 322 µM (inactive). In addition, the GI50 in the assay on SK-MEL-5, in the assay with SN12C, with SR, with UACC-257 and in the assay with UACC-62 was > 322 µM (inactive) in each case.

As to `CC1(C)OC(C[C@]2(C#N)C[C@H](CCl)OC(C)(C)O2)C[C@@H](C[C@]2(C#N)C[C@H](CCl)OC(C)(C)O2)O1` (some centres not stated), the GI50 with HCC 2998 is > 100 µM (inactive); with HCT-15 it was more than 100 µM; in the assay with HL-60, > 100 µM (inactive); in the assay with HOP-92, > 100 µM (inactive); in the assay on HT-29, > 100 µM (inactive); with Malme-3M, > 100 µM (inactive). In addition, the GI50 in the assay on NCI-H23, in the assay on NCI-H522, in the assay with OVCAR-4, in the assay on SF-268, in the assay on SF-295 and with SK-MEL-28 was > 100 µM (inactive) throughout. Moreover, the GI50 in the assay on SK-MEL-2 was > 100 µM (inactive); in the assay on SK-MEL-5 it was 51.6 µM (inactive); in the assay on SN12C it was > 100 µM (inactive); in the assay with SR, 20 µM (inactive); in the assay with UACC-257, 17.3 µM (inactive); with UACC-62 it was > 100 µM (inactive).

On to `CC#CC1/C(=C\C(=O)OC)CCCC1O` (configuration not stated), for which the GI50 in the assay on HCC 2998 was > 100 µM (inactive); in the assay on HCT-15, more than 100 µM; in the assay with HL-60 it was > 100 µM (inactive); in the assay with HT-29 it was > 100 µM (inactive); in the assay with Malme-3M it was > 100 µM (inactive); in the assay with NCI-H23 it was > 100 µM (inactive). The GI50 in the assay on NCI-H522, in the assay with OVCAR-4, with SF-268, in the assay on SF-295, with SK-MEL-28 and in the assay with SK-MEL-2 was > 100 µM (inactive) in each case. Besides, the GI50 in the assay on SK-MEL-5, with SN12C, with SR, with UACC-257 and in the assay with UACC-62 was > 100 µM (inactive) in each case.

As for `CC(=O)OC[C@@H](COC(=O)/C=C/c1ccc(O)cc1)OC1OC(CO)C(O)C(O)C1O` (some centres not stated), the GI50 in the assay with HCC 2998 was > 100 µM (inactive); with HCT-15, more than 100 µM; in the assay on HL-60, > 100 µM (inactive); in the assay with HOP-92 it was > 100 µM (inactive); with HT-29, > 100 µM (inactive); in the assay on Malme-3M, > 100 µM (inactive). The GI50 in the assay on NCI-H23 was > 100 µM (inactive); with NCI-H522 it was > 100 µM (inactive); in the assay on OVCAR-4, > 100 µM (inactive); with SF-268, > 75.5 µM (inactive); in the assay on SF-295, > 100 µM (inactive); in the assay on SK-MEL-28, > 100 µM (inactive). For the same molecule, the GI50 with SK-MEL-2, with SK-MEL-5, with SN12C, in the assay with SR, in the assay with UACC-257 and in the assay with UACC-62 was > 100 µM (inactive) each time.

Take `c1ccc([S+](c2ccccc2)c2ccc(Sc3ccc([S+](c4ccccc4)c4ccccc4)cc3)cc2)cc1`: the GI50 was 20.2 µM (inactive) in the assay on HCC 2998; more than 100 µM in the assay with HCT-15; 2.58 µM (inactive) in the assay with HL-60; 27.6 µM (inactive) with HOP-92; 18.2 µM (inactive) in the assay with HT-29; 32.6 µM (inactive) in the assay on Malme-3M. Further, the GI50 with NCI-H23 was 3.06 µM (inactive); with NCI-H522, 12 µM (inactive); in the assay on OVCAR-4 it was 20.6 µM (inactive); with SF-268, 22.3 µM (inactive); with SF-295 it was 25.8 µM (inactive); in the assay on SK-MEL-28, 34.7 µM (inactive). In addition, the GI50 in the assay with SK-MEL-5 was 5.81 µM (inactive); in the assay on SN12C, 17.9 µM (inactive); with SR it was 6.44 µM (inactive); in the assay with UACC-257 it was 12.5 µM (inactive); in the assay with UACC-62, 24 µM (inactive).

The values above are taken from ChEMBL document CHEMBL1201862, “PubChem BioAssay data set” (2004).
